Results on eleven compounds are retold here after patent publication US9914735B2, “Heteroaryl Syk inhibitors” (Boehringer Ingelheim International GmbH, priority 2014, dated 2018).

The target of series [1] is Recombinant human Syk (amino acids 342-635), GST-Syk kinase fusion protein (Homo sapiens (Human), UniProt P43405). Description: Syk kinase test (Kinase Glo luminescence). Type of series: biochemical. In general terms: Kinase-Glo measures the ATP left after a reaction by luminescence.
The target in series [2] is Recombinant human Aurora B (amino acids 1-344) (Homo sapiens (Human), UniProt Q96GD4). Description: Aurora B kinase test (ADP Glo luminescence). It counts as biochemical.
Sequence of Recombinant human Aurora B (amino acids 1-344) (Q96GD4 whole entry, the tested form may be a part): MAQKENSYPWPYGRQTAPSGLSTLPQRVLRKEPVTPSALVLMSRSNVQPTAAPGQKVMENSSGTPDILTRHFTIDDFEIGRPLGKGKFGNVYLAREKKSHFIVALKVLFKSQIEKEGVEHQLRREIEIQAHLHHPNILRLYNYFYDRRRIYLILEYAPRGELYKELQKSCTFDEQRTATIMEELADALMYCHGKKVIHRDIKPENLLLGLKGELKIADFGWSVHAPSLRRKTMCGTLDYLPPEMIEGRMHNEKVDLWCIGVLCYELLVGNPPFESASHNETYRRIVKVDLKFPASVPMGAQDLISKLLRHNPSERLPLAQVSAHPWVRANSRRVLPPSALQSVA
Another series deals with FLT3 (Homo sapiens (Human), UniProt P36888). In words: FLT3 kinase test (Z'-LYTE). It counts as biochemical. The essentials: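 Z'-LYTE FRET format; kinase reaction started with ATP, run 1 h at room temperature, then 1 h development before stop reagent. Controls without compound, without kinase, and phosphopeptide as 100% phosphorylation reference; values reported in M.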
Sequence of FLT3 (P36888 27-993): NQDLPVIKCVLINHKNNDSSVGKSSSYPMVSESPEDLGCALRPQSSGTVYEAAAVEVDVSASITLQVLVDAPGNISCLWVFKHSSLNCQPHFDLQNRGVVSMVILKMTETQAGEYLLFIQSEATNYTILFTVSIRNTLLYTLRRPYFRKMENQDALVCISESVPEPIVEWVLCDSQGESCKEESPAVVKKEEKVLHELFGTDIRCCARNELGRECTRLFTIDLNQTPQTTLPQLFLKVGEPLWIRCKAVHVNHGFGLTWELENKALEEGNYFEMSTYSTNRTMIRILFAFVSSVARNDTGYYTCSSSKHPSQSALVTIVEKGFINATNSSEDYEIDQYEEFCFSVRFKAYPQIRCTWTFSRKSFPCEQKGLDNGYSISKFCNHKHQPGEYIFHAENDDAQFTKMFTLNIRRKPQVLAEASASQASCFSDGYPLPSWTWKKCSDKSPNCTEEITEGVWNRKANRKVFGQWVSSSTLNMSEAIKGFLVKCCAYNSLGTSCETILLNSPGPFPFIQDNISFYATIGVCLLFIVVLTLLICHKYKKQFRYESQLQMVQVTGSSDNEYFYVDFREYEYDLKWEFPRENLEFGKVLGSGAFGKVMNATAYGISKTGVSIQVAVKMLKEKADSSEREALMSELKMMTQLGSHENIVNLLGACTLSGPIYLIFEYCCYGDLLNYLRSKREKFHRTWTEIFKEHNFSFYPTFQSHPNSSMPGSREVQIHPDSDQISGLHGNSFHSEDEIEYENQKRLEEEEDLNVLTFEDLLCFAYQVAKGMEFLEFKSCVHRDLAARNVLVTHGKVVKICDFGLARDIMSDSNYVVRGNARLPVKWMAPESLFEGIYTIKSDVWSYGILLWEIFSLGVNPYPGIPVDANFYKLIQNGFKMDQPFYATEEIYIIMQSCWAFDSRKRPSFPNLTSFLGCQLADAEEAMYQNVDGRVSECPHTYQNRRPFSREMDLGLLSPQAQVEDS

Series [3] can be described thus: Human liver microsomal stability test. The conditions noted are these: human liver microsomes; Qh = liver blood flow. It counts as in vitro ADME. As to the method: The metabolic degradation for a specific SYK-inhibitor is performed at 37° C. with pooled human liver microsomes (human liver microsomes are commercially available as “BD UltraPool™” by Corning Life Sciences, Fogostraat 12, 1060 LJ Amsterdam, The Netherlands). The final incubation volume of 100 μl per time point contains TRIS buffer pH 7.6 at RT (0.1 M), magnesium chloride (5 mM), microsomal protein (1 mg/ml) and the test compound at a final concentration of 1 μM.
Following a short preincubation period at 37° C., the reaction is initiated by addition of beta-nicotinamide adenine dinucleotide phosphate in its reduced form (NADPH, 1 mM) and terminated by transfering an aliquot into solvent after different time points. Additionally, the NADPH-independent degradation is monitored in incubations without NADPH, terminated at the last time point.
The quenched (terminated) incubations are then pelleted by centrifugation (10000 g, 5 min).
An aliquot of the supernatant is assayed by LC-MS/MS for the remaining amount of parent compound. The half-life (t1/2 INVITRO) is determined by the slope of the semilogarithmic plot of the concentration-time profile.
The intrinsic clearance (CL_[…]) is calculated by considering the amount of protein in the incubation: CL_[…][μl/min/mg protein]=(Ln 2/(t1/2 INVITRO[min]*protein content[mg/ml]))*1000
The protein content [mg/ml] was determined with the “Bicinchoninic Acid Kit” of Sigma Aldrich (commercially available).
The upscaled intrinsic Clearance (CL_UP_INT) is calculated by considering the liver weight [g liver/kg body weight] and the microsomal recovery [mg protein/g liver]: CL_UP_INT[ml/min/kg]=0.001*CL_[…]*liver weight*microsomal recovery • with microsomal recovery=45 mg protein/g liver • with liver weight=25.7 g liver/kg body weight
The percent hepatic blood flow (% Qh) is finally calculated by considering the human liver blood flow Q [ml/min/kg]: % Qh[%]=((Q*CL_UP_INT)/(Q+CL_UP_INT)/Q)*100 • with liver blood flow (Q)=20.7 ml/min/kg.
(Liver microsomes are vesicles of endoplasmic reticulum, rich in cytochrome P450 enzymes.)

For a further series, the target named is Human GSK3beta (Homo sapiens (Human), UniProt P49841). Description: GSK 3beta kinase test (Z'-LYTE). The conditions noted are these: read-out: IC50 in μM (GSK3beta-Inhibition). It counts as biochemical. As to the method:
Human GSK3beta (expressed and prified from SF21 cells) is obtained from the University Dundee/Scotland (Dr. James Hastie—Dept. of Biochemistry) in 50 mM Tris (pH7.5); 150 mM NaCl; 0.1 mM EGTA, 270 mM Succrose, 0.1% β-mercaptoethanol, 1 mM benzamidine, 0.2 mM PMSF; sequence see below). The enzyme is diluted to 3.56 μM (168 μg/ml) in enzyme dilution buffer and 6 μl aliquots are stored at −80° C.
The activity of GSK3 kinase protein is measured using the Z′-LYTETM assay technology from Invitrogen (# PV3324).
The assay is performed in 384 black plates from Corning (#3676) in a final volume of 10 μl by adding 5 μl of kinase peptide mix and 2.5 μl of compound dilution. The reaction is started by addition of 2.5 μl of the 4×ATP solution.
Positive controls are reaction mixtures containing no test compound; negative controls (blanks) are reaction mixtures containing no ATP. As a further control, the phosphopeptide solution is added to wells without kinase and without ATP (=100% phosphorylation control).
The non inhibited kinase reaction will result in a phosphorylation corresponding to 20%-30% of the phosphorylation control.
The reaction is performed 1 h at room temperature. After 1h 5 μl of the development solution is added. After a further incubation for 1 h at room temperature 5 μl of the stop reagent is added. Finally the plates are read on a Flex Station II 384 (Molecular Devices).
The output text file is evaluated in an “MS-Excel—VB-Makro” and “GraphPadPrism” (Version 5) (GraphPad Software Inc.) is used to calculate the results. Data for the inhibition of GSK3beta are reported in M. data for the inhibition of the protease are reported in % CTL.

Where [4] appears, read: Table 1, read-out: SYK-inhibition IC50-value.
Setting [5] is: read-out: IC50 in μM (SYK-Inhibition).
[6] abbreviates: Table 1, read-out: AURB-inhibition IC50-value.
Where [7] appears, read: read-out: IC50 in μM (AURB-Inhibition).
Setting [8] is: Table 1, read-out: FLT3-inhibition IC50-value.
Setting [9] is: read-out: IC50 in μM (FLT3-Inhibition).

Read-outs that look alike come from different tables or passages of the source.

Sequence of Human GSK3beta (P49841 whole entry): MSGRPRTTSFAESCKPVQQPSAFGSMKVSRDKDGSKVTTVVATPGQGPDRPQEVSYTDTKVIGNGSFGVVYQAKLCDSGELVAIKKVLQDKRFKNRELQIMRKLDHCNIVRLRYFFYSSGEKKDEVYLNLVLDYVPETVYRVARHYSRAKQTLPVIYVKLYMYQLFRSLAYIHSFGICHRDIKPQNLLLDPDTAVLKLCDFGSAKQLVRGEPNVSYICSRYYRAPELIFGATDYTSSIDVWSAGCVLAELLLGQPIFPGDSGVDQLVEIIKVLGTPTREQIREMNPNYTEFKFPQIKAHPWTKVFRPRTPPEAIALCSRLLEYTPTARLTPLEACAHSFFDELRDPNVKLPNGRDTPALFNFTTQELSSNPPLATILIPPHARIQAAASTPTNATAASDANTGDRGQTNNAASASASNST

For the compound `C[C@@H](Oc1cc(-c2ccc3c(cnn3C)c2)cc2nn(C)cc12)[C@H]1CNC(=O)C1` [Example 28, (4R)-4-[(1R)-1-[2-methyl-6-(1-methylindazol-5-yl)indazol-4-yl]oxyethyl]pyrrolidin-2-one], the concentration for half-maximal inhibition (IC50) (commonly the concentration needed to halve the response being measured) in series [1] (setting [4]) is 0.0335 µM; in series [1] (setting [5]) it was 0.0335 µM; in series [2] (setting [6]), greater than 50 µM; in series [2] (setting [7]) it was greater than 50 µM; on FLT3 (setting [8]), 3.69 µM; at FLT3 (setting [9]), 3.69 µM. In addition, the IC50 on Human GSK3beta is greater than 10 µM. In addition, the “microsomal stability Cl [% Qh]” value in series [3] is recorded as less than 23 % Qh.
For `C[C@@H](Oc1cc(-c2ccc3c(c2)c(N)nn3C)cc2nn(C)cc12)[C@H]1CNC(=O)C1` [Example 36, (4R)-4-[(1R)-1-[6-(3-amino-1-methyl-indazol-5-yl)-2-methyl-indazol-4-yl]oxyethyl]pyrrolidin-2-one], the IC50 in series [1] (setting [4]) is 0.0172 µM; in series [1] (setting [5]), 0.0172 µM; in series [2] (setting [6]) it was 35.2 µM; in series [2] (setting [7]), 35.2 µM; at FLT3 (setting [8]), 2.39 µM; at FLT3 (setting [9]) it was 2.39 µM. In addition, the IC50 on Human GSK3beta was greater than 10 µM. In series [3], the “microsomal stability Cl [% Qh]” value is on record as less than 23 % Qh.
On to `C[C@@H](Oc1cc(-c2ccc(F)cn2)cc2nn(C)cc12)[C@H]1CNC(=O)C1` [Example 41, (4R)-4-[(1R)-1-[6-(5-fluoro-2-pyridyl)-2-methyl-indazol-4-yl]oxyethyl]pyrrolidin-2-one], for which the IC50 was 0.164 µM in series [1] (setting [4]); 0.164 µM in series [1] (setting [5]); greater than 50 µM in series [2] (setting [6]); greater than 50 µM in series [2] (setting [7]); 42.8 µM on FLT3 (setting [8]); 42.8 µM on FLT3 (setting [9]). For the same compound, the IC50 on Human GSK3beta was greater than 10 µM. Besides, the “microsomal stability Cl [% Qh]” value in series [3] is listed as less than 23 % Qh.
Regarding `C[C@@H](Oc1cc(-c2ccc(C3CCN(C)CC3)cc2)cc2nn(C)cc12)[C@H]1CNC(=O)C1` [Example 42, (4R)-4-[(1R)-1-[2-methyl-6-[4-(1-methyl-4-piperidyl)-phenyl]indazol-4-yl]oxyethyl]-pyrrolidin-2-one], the IC50 in series [1] (setting [4]) is 0.0167 µM; in series [1] (setting [5]), 0.0167 µM; in series [2] (setting [6]), greater than 50 µM; in series [2] (setting [7]) it was greater than 50 µM; on FLT3 (setting [8]), 0.55 µM; at FLT3 (setting [9]) it was 0.55 µM. Moreover, on Human GSK3beta, the half-inhibitory concentration (IC50) was greater than 10 µM. For the same compound, the “microsomal stability Cl [% Qh]” value in series [3] is given as less than 23 % Qh.
`C[C@@H](Oc1nc(-c2ccc(C(F)F)nc2)cc2nn(C)cc12)[C@H]1CNC(=O)C1` [Example 51, (4R)-4-[(1R)-1-[6-[6-(difluoromethyl)-3-pyridyl]-2-methyl-pyrazolo[4,3-c]pyridin-4-yl]oxyethyl]pyrrolidin-2-one]: the IC50 is 0.366 µM in series [1] (setting [4]); 0.366 µM in series [1] (setting [5]); 49.8 µM in series [2] (setting [6]); 49.8 µM in series [2] (setting [7]); 20.9 µM on FLT3 (setting [8]); 20.9 µM at FLT3 (setting [9]). The concentration for half-maximal inhibition (IC50) at Human GSK3beta was greater than 10 µM. In series [3], the “microsomal stability Cl [% Qh]” value is on record as less than 23 % Qh.
In the case of `COc1cc(-c2cc3nn(C)cc3c(O[C@H](C)[C@H]3CNC(=O)C3)n2)cc(OC)c1OC` [Example 52, (4R)-4-[(1R)-1-[2-methyl-6-(3,4,5-trimethoxyphenyl)-pyrazolo[4,3-c]pyridin-4-yl]oxyethyl]pyrrolidin-2-one], the IC50 in series [1] (setting [4]) was 0.0413 µM; in series [1] (setting [5]), 0.0413 µM; in series [2] (setting [6]), greater than 50 µM; in series [2] (setting [7]) it was greater than 50 µM; at FLT3 (setting [8]), greater than 50 µM; at FLT3 (setting [9]), greater than 50 µM. In addition, on Human GSK3beta, the IC50 was greater than 10 µM. Further, the “microsomal stability Cl [% Qh]” value in series [3] is less than 23 % Qh.
For the compound `COc1ccc(-c2cc3nn(C)cc3c(O[C@H](C)[C@H]3CNC(=O)C3)n2)cn1` [Example 59, (4R)-4-[(1R)-1-[6-(6-methoxy-3-pyridyl)-2-methyl-pyrazolo-[4,3-c]pyridin-4-yl]oxyethyl]-pyrrolidin-2-one], the IC50 in series [1] (setting [4]) is 0.144 µM; in series [1] (setting [5]) it was 0.144 µM; in series [2] (setting [6]), greater than 50 µM; in series [2] (setting [7]) it was greater than 50 µM; on FLT3 (setting [8]), 46.2 µM; on FLT3 (setting [9]) it was 46.2 µM. Moreover, the 50% inhibitory concentration (IC50) at Human GSK3beta was greater than 10 µM. Moreover, in series [3], the “microsomal stability Cl [% Qh]” value is given as less than 23 % Qh.
Consider `C[C@@H](Oc1nc(-c2ccc(C(F)(F)F)nc2)cc2nn(C)cc12)[C@H]1CNC(=O)C1` [Example 61, (4R)-4-[(1R)-1-[2-methyl-6-[6-(trifluoromethyl)-3-pyridyl]pyrazolo[4,3-c]pyridin-4-yl]oxyethyl]pyrrolidin-2-one], for which the IC50 was 0.475 µM in series [1] (setting [4]); 0.475 µM in series [1] (setting [5]); greater than 50 µM in series [2] (setting [6]); greater than 50 µM in series [2] (setting [7]); 48.1 µM at FLT3 (setting [8]); 48.1 µM on FLT3 (setting [9]). At Human GSK3beta, the IC50 was greater than 10 µM. For the same compound, the “microsomal stability Cl [% Qh]” value in series [3] is on record as less than 23 % Qh.
`C[C@@H](Oc1nc(-c2ccc3c(cnn3C)c2)cc2nn(C)cc12)[C@H]1CNC(=O)C1` [Example 62, (4R)-4-[(1R)-1-[2-methyl-6-(1-methylindazol-5-yl)pyrazolo[4,3-c]pyridin-4-yl]oxyethyl]pyrrolidin-2-one]: the IC50 in series [1] (setting [4]) is 0.0193 µM; in series [1] (setting [5]), 0.0193 µM; in series [2] (setting [6]), greater than 50 µM; in series [2] (setting [7]), greater than 50 µM; on FLT3 (setting [8]), 4.78 µM; at FLT3 (setting [9]), 4.78 µM. Moreover, on Human GSK3beta, the IC50 is greater than 10 µM. Besides, the “microsomal stability Cl [% Qh]” value in series [3] is listed as less than 23 % Qh.
Regarding `C[C@@H](Oc1nc(-c2ccc(N3CCN(C)CC3)cc2)cc2nn(C)cc12)[C@H]1CNC(=O)C1` [Example 67, (4R)-4-[(1R)-1-[2-methyl-6-[4-(4-methylpiperazin-1-yl)phenyl]pyrazolo[4,3-c]pyridin-4-yl]oxyethyl]-pyrrolidin-2-one], the IC50 is 0.0152 µM in series [1] (setting [4]); 0.0152 µM in series [1] (setting [5]); greater than 50 µM in series [2] (setting [6]); greater than 50 µM in series [2] (setting [7]); 1.68 µM on FLT3 (setting [8]); 1.68 µM at FLT3 (setting [9]). On Human GSK3beta, the IC50 was greater than 10 µM. Also, the “microsomal stability Cl [% Qh]” value in series [3] was 34 % Qh.
Turning to `C[C@@H](Oc1nc(-c2ccc3cnn(C)c3c2)cc2nn(C)cc12)[C@H]1CNC(=O)C1` [Example 72, (4R)-4-[(1R)-1-[2-methyl-6-(1-methylindazol-6-yl)pyrazolo[4,3-c]pyridin-4-yl]oxyethyl]pyrrolidin-2-one], the IC50 in series [1] (setting [4]) was 0.0526 µM; in series [1] (setting [5]), 0.0526 µM; in series [2] (setting [6]), greater than 50 µM; in series [2] (setting [7]), greater than 50 µM; at FLT3 (setting [8]), 19.6 µM; on FLT3 (setting [9]), 19.6 µM. In addition, on Human GSK3beta, the IC50 came out at 1.45 µM. In addition, the “microsomal stability Cl [% Qh]” value in series [3] is recorded as less than 23 % Qh.
